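1) Cells in 96-well plates. 2) Compound, 48 h, 5 concentrations. 3) Linear interpolation between surrounding doses. 4) Unreached endpoint = highest concentration. At the TGI there is no net growth.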
What was measured:
Test in all cases: NCI tumour cell line growth inhibition, 48 h
LXFL 529 NSCLC = test system: LXFL 529 NSCLC
RXF-631 renal = test system: RXF-631 renal
HOP-18 NSCLC = test system: HOP-18 NSCLC
P388/ADR leukemia = test system: P388/ADR leukemia
SN12K1 renal = test system: SN12K1 renal
P388 leukemia = test system: P388 leukemia

Compound CCCCCCC(C)OC(=O)/C=C(\CC(=O)OC(C)CCCCCC)C(=O)OC(C)CCCCCC (stereo unspecified) has a TGI (LXFL 529 NSCLC) of over 100 µM.

Work on CCN(CC)CCCC(C)NC(=O)c1ccc2c(c1)C(=O)c1ccccc1C2=O (stereo unspecified) yielded a TGI (LXFL 529 NSCLC) of 66.9 µM, a TGI (RXF-631 renal) of 65.5 µM and a TGI (HOP-18 NSCLC) of over 100 µM.

C=C1C(=O)O[C@@H]2[C@H](O)[C@@H](C)[C@@H]3C=CC(=O)[C@@]3(C)[C@H](OC(=O)C=C(C)C)[C@H]12 was tested, and the TGI (P388/ADR leukemia) was 0.272 µM, the TGI (SN12K1 renal) was 1.75 µM and the TGI (P388 leukemia) was 0.483 µM. The TGI (HOP-18 NSCLC) was 3.09 µM.

Work on CCCCCCCCCCCCCCCCCCOCC(COP(=O)([O-])OCC[N+](C)(C)C)OC (stereo unspecified) yielded a TGI (P388/ADR leukemia) of 20 µM, a TGI (SN12K1 renal) of 24.3 µM and a TGI (P388 leukemia) of 11 µM. The TGI (HOP-18 NSCLC) was 27.5 µM.

For COc1cc(C2c3cc4c(cc3[C@@H](Nc3cccc([N+](=O)[O-])c3)C3COC(=O)[C@H]23)OCO4)cc(OC)c1O (stereo partly specified), the TGI (P388/ADR leukemia) was 5.58 µM, the TGI (SN12K1 renal) was 10.3 µM and the TGI (HOP-18 NSCLC) was 39.3 µM.

Work on O=C1c2ccccc2C(=O)c2c(O)ccc(O)c21 yielded a TGI (LXFL 529 NSCLC) of over 100 µM.
